The text below walks through data of patent publication US9957214B2, “Multifunctional radical quenchers” (ARIZONA BOARD OF REGENTS ON BEHALF OF ARIZONA STATE …, priority 2012, dated 2018).

Where only a bound is given, the exact number is not on record here.

In data set [1] the target is bovine heart mitochondrial complex I (Bos taurus, UniProt P03887+P17694+P42026). Put plainly: Complex I (NADH-Q1 oxidoreductase) inhibition in submitochondrial particles. The class given is biochemical. Particulars: submitochondrial particles, 30° C.
For a further data set, the system named is FRDA lymphocytes. Description: Preservation of mitochondrial membrane potential (TMRM flow cytometry) in DEM-treated FRDA lymphocytes. The class given is cell-based. As for the experimental part:
FIG. 3. Effect of nitrogen-containing 1,4-benzoquinone derivatives on mitochondrial membrane potential of cultured FRDA cells. Representative flow cytometric two dimensional color density dot plot analyses of mitochondrial membrane potential Δψm in FRDA lymphocytes stained with TMRM and analyzed using the FL2-H channel as described in Experimental Section. The cells were washed twice in phosphate buffered saline, and suspended in phosphate buffered saline containing 20 mM glucose. The percentage of cells with intact Δψm is indicated in the top right quadrant of captions. In each analysis, 10,000 events were recorded. Data are expressed as means±SEM of three independent experiments run in duplicate.
Mitochondrial membrane potential was measured using two different fluorescent dyes, TMRM and JC-1. Δψm was determined as previously described by staining FRDA lymphocyte cells with TMRM (Molecular Probes, Eugene, Oreg.) and analyzing fluorescence emission by flow cytometry in detection channel 2 (FL2-H) (Khdour et al. (2011) Pharmaceut. Res. 28, 2896-2909). Briefly, FRDA lymphocytes were pre-treated with or without the test compounds for 16 h. The cells were treated with 5 mM DEM for 140 min, collected by centrifugation at 300×g for 3 min and then washed twice with phosphate buffered saline. The cells were resuspended in PBS containing […] and incubated at 37° C. in the dark for 15 min with 250 nM TMRM. Cells were collected by centrifugation at 300×g for 3 min and were then washed with phosphate buffered saline. The samples were analyzed immediately by flow cytometry using a 488 nm excitation laser and the FL2-H channel. The results obtained were verified in three independent experiments. […] In each analysis, 10,000 events were recorded. […] The following day, cells were treated with tested compounds and incubated for an additional 12 h before treatment with 1 mM BSO. Δψm was assessed after 24 h using JC-1 Mitochondrial Membrane Potential Detection Kit (Biotium, Inc) following the manufacturer instruction. Glass cover slips were rinsed with phosphate-buffered saline and mounted onto slides, and images were recorded and analyzed with a Zeiss AxioCam MRm and AxioVision 3.1 software (Carl Zeiss Goettingen, Germany) on a Zeiss Axiovert 200 M inverted microscope, equipped with a 40× oil immersion objective.
The ability of the test compounds to preserve mitochondrial membrane potential under conditions of oxidative stress was studied. […] Changes in mitochondrial membrane potential (Δψm) were measured using two different fluorescent dyes, tetramethylrhodamine methyl ester (TMRM) and 5,5′,6,6′-tetrachloro-1,1′,3,3′-tetraethylbenzimidazolocarbocyanine iodide (JC-1). […] The fluorescence signal of TMRM can be directly co-related to Δψm across the inner mitochondrial membrane. […]

Data set [2] relates to Friedreich's ataxia lymphoblast cell line GM15850. Put plainly: Cytoprotection (trypan blue exclusion assay) of DEM-treated FRDA lymphocytes. The class given is cell-based. Particulars: Homo sapiens, GM15850; 5 μM; DEM alone 18 ± 10% viability; read-out: Cytoprotection (cell viability, % of untreated control). An outline of the steps:
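GM15850 FRDA lymphoblasts at 5×10^5 cells/mL pre-incubated with test compounds for 17 h at 37 °C, then exposed to 5 mM DEM to deplete GSH. Viability by 0.4% trypan blue exclusion, ≥500 cells counted per group, expressed as % of non-DEM control; means±S.E.M., n=3.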

For data set [3], the system named is differentiated SH-SY5Y cells. Put plainly: Neuroprotection against Aβ 1-42 oligomer induced cytotoxicity (WST-1). Type of data set: cell-based, human. Particulars: Aβ 1-42 oligomers 2.5 μM, 48 h. As for the experimental part:
FIG. 8. Effect of nitrogen-containing 1,4-benzoquinone 40 and geldanamycin on Aβ 1-42 induced neurotoxicity in differentiated SH-SY5Y cells.
The cytotoxic effect of Aβ 1-42 oligomers (2.5 μM) on differentiated SH-SY5Y cells was evaluated in presence and absence of the test compounds. Sequential treatment of the human SH-SY5Y neuroblastoma cell line with retinoic acid and brain-derived neurotrophic factor (BDNF) generates nearly pure populations of human neuron-like cells, thus providing a model for the study of neuronal differentiation and neuroprotection as previously described, with some modifications (Encinas et al. (2000) J. Neurochem. 75, 991-1003). […] The plates were incubated at 37° C. in an atmosphere having 95% humidity and 5% CO2 for 48 h and then cell viability was measured using a WST-1 Kit (Roche Diagnostics). […] Color intensity was measured with a 96-well plate at 450 nm using a SpectraMax M5 microplate reader (Molecular Devices, Sunnyvale, Calif.). Results are expressed as percentage of viable cells relative to untreated control after subtracting background. Data are expressed as means±S.E.M. (n=3).
Synthetic human Aβ 1-42 was purchased from AnaSpec (San Jose, Calif.). […] Aβ 1-42 peptide content was determined by the method of bicinchoninic acid assay (micro-BCA kit, Pierce) using BSA as reference.

Sequence of bovine heart mitochondrial complex I (P25708 21-464): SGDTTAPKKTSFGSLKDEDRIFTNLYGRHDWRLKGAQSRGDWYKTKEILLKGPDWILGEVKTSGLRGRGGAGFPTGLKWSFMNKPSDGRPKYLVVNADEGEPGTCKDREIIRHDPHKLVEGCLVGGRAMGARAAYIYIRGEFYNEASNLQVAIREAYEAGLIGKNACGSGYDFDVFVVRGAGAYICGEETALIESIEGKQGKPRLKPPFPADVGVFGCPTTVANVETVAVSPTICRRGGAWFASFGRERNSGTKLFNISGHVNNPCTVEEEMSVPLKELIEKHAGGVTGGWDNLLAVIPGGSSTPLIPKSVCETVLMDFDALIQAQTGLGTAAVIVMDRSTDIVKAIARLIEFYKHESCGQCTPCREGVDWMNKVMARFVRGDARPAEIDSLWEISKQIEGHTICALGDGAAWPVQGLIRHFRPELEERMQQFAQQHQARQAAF
Sequence of bovine heart mitochondrial complex I (P42026 38-216): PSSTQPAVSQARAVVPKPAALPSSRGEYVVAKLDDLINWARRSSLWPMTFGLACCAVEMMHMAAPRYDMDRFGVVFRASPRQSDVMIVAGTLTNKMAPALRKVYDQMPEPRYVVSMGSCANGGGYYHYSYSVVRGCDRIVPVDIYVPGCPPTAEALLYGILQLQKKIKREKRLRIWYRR
Sequence of bovine heart mitochondrial complex I (P17694 34-463): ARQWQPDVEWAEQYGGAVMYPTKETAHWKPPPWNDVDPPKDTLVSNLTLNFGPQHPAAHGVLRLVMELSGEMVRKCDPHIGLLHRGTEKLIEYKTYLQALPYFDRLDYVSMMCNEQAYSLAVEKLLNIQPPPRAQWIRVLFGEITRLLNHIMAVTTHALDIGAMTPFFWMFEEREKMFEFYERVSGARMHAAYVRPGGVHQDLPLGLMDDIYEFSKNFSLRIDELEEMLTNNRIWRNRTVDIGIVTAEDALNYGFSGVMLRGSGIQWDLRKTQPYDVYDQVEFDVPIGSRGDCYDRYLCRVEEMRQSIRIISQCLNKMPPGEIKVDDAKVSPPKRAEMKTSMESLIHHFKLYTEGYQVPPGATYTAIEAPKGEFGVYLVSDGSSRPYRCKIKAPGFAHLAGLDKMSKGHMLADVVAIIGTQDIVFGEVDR
Sequence of bovine heart mitochondrial complex I (P15690 24-727, further chain): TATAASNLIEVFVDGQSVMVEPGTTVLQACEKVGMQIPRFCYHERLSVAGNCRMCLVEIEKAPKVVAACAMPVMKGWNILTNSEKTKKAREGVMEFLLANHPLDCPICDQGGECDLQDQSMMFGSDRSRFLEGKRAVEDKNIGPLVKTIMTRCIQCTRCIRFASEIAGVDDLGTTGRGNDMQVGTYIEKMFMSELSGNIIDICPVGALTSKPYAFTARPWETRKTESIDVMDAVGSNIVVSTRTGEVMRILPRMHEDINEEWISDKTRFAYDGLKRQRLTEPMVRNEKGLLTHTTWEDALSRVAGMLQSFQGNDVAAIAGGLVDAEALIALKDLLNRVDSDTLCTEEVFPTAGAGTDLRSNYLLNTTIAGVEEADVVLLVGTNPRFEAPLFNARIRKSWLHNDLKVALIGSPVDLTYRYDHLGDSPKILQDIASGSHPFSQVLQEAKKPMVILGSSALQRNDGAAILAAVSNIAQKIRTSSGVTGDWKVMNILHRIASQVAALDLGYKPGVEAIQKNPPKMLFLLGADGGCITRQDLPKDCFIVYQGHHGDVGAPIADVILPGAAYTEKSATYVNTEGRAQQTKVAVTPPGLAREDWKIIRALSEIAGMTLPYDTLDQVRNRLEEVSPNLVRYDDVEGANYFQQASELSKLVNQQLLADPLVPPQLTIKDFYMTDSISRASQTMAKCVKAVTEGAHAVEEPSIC
Sequence of bovine heart mitochondrial complex I (P03887 whole entry): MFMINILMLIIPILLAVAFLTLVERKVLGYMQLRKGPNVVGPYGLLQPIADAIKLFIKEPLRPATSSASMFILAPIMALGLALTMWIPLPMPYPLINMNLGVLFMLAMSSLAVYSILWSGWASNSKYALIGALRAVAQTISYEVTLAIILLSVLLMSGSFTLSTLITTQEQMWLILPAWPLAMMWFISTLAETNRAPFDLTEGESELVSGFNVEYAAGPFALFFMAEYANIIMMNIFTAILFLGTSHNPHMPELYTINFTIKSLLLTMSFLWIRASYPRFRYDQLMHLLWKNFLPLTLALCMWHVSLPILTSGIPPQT
Sequence of bovine heart mitochondrial complex I (P42028 37-212, further chain): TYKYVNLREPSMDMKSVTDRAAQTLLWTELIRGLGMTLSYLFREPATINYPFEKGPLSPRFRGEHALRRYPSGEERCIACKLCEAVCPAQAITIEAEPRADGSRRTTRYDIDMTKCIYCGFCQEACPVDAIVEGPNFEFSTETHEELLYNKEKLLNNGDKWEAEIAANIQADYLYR

`CCCCCCCCCCCCCC1=C(OC)C(=O)C=C(NCCCC(=O)OCCCC)C1=O` [Compound 15, Butyl 4-(4-methoxy-3,6-dioxo-5-tridecylcyclohexa-1,4-dienylamino)butanoate]: the IC50 in data set [1] (read-out: Complex I inhibition IC50) is 98 ± 8 µM. For the same compound, the Emax in data set [1] (read-out: Complex I inhibition Imax) is no less than 60%. Also, in the data set with FRDA lymphocytes, the “Preservation of mitochondrial membrane potential Δψm (in words)” value was “prevented the loss of Δψm”. In addition, the viability at 5 µM in data set [2] turned out to be 82 ± 2.9%.

For `COC1=C2C[C@@H](C)C[C@H](OC)[C@H](O)[C@@H](C)/C=C(\C)[C@H](OC(N)=O)[C@@H](OC)/C=C\C=C(/C)C(=O)NC(=CC1=O)C2=O` [geldanamycin, reference compound], the “Effect on Aβ 1-42 induced cytotoxicity (in words)” value in data set [3] is “increased cytotoxicity”.
